From patent US20050209140A1, “Methods of controlling axonal growth” (MASSACHUSETTS INSTITUTE OF TECHNOLOGY, priority 1996, published 2005)
“Also recorded” adds a separate entry of the source. Where a SMILES comes first, the peptide text is derived from it.

Legend:
retinal explants (RGCs) = experiment: Retinotectal explant coculture: cell death in retinal explants and retinal axon growth into tectal slices; format: cell-based, mouse
Protocol: Brains were dissected into ice-cold Gey's balanced salt solution enriched with glucose. […] Retinal explants were abutted against tectal slices. Tissues were placed on the microporous membrane of Millicell wells (Millipore) and maintained in NeuralBasal medium supplemented with B27 (GIBCO Inc., New York) at 37° C. for five days. To exclude the possibility that tectal tissues from mutant mice may affect axonal growth of RGCs, a series of parallel experiments were perforemd in which one retinal explant of each mouse was confronted with the tectum from the same mouse, while the second retinal explant was placed against the tectum from another mouse. With this arrangement, retinal explants from each animal had the possibility of being cocultured with the tectum from a wild-type, heterozygous, or homozygous animal. The number of regenerating axons was sampled by applying the lipophilic carbocyanine fluorescent label, DiI, in crystals to fixed retinal explants. The cocultures were stored in fixative for two-four weeks to allow diffusion of the dye, and labeled retinal axons were viewed with a fluorescence microscope (Nikon).
(§1) Primary cultures of dissociated retinal cells were prepared from P2 wild-type or transgenic animals. RGCs were prelabeled by injecting DiI solution (25% in Dimethyl Formamide) into the tectal region bilaterally in P0 pups. Cells were plated in 24-cell wells treated with poly-L-lysine ([…], 4° C. overnight) and coated with Human Merosin ([…], r.t., 2 hr)(Meyer-Franke, A. and Barres, B. A. Neuron 15, 805-819 (1995)). Cultures were maintained for 2 to 3 days in NeuralBasal medium supplemented with B27. Trypan blue staining was used to examine the viability of retinal ganglion cells (RGCs). Retinotectal cocultures prepared from wild-type P2 mice were described previously and ZVAD (Z-Val-Ala-Asp-CH2F, Enzyme Systems Products) was added to the culture medium at the time of plating. Cell death was detected by staining with the fluorescent dye, SYTOX green fluorescent dead cell stain (Molecular Probes). Cultures were visualized under an inverted Nikon microscope equipped with Nomarski and epifluorescence illumination.
The effect of the ICE inhibitor was also tested in the explant coculture system with tissue prepared from wild-type P2 mice.

[1] = system: retinal ganglion cells (RGCs); experiment: Dissociated retinal cell culture: survival and neurite outgrowth of prelabeled RGCs; format: cell-based, mouse
Protocol: as §1
Whether these two activities of neurons, survival and axonal growth, can be separated in vitro was next examined. […]

CC(C)[C@H](NC(=O)OCc1ccccc1)C(=O)N[C@@H](C)C(=O)N[C@@H](CC(=O)O)C(=O)CF [ZVAD, Z-Val-Ala-Asp-CH2F] (HELM PEPTIDE1{[O=C(OCc1ccccc1)[*:2]].V.A.D.[FC[*:1]]}$$$$V2.0)
ability to promote axonal growth (retinal explants (RGCs); overall conclusion of the ZVAD experiments): not sufficient to promote axonal growth; also recorded: not sufficient to support axonal growth
protection of cells from death in retinal explants compared with bcl-2 transgenic mouse (retinal explants (RGCs); wild-type P2 mice): protected cells from death almost as well as bcl-2
number of growing retinal axons with increasing concentration of ZVAD (retinal explants (RGCs); wild-type P2 mice, ZVAD 50, 100, 200 µM): did not change significantly
extent of cell death in retinal explants (retinal explants (RGCs); wild-type P2 mice, ZVAD 50, 100, 200 µM, SYTOX green dead cell stain): reduced the extent of cell death; also recorded: number of dying cells in retinal explants decreased
number of axons that invaded tectal slices, ZVAD-treated wild-type cultures versus bcl-2 transgenic mice (retinal explants (RGCs); wild-type P2 mice, fold less than bcl-2 transgenic): 10 fold
neurite outgrowth of labeled RGCs in dissociated culture ([1]; ZVAD-treated RGCs from wild-type P2 animals, no neurotrophic factors added, n=36): round and devoid of neurites
RGC death in dissociated retinal cell culture ([1]; retinae of P2 pups, ZVAD at a concentration of 10 mM or above, after 2 days in culture): effectively reduced RGC death
